According to ChEMBL document CHEMBL1131540 (Bioorg Med Chem Lett, 1998):

What was measured:
Mu-type opioid receptor [1] = target: T1, Mu-type opioid receptor (Cavia porcellus, UniProt P97266); experiment: Inhibitory concentration required against biological activity of mu opioid receptor from guinea pig ileum (GPI); format: tissue-based
[2] = target: Opioid receptors; mu & delta (Homo sapiens) (UniProt P41143+P35372); experiment: Selectivity ratio of binding affinity towards delta opioid receptor to that of mu opioid receptor; format: protein assay
Sequence of Opioid receptors; mu & delta (Homo sapiens) (P35372 whole entry, looked up): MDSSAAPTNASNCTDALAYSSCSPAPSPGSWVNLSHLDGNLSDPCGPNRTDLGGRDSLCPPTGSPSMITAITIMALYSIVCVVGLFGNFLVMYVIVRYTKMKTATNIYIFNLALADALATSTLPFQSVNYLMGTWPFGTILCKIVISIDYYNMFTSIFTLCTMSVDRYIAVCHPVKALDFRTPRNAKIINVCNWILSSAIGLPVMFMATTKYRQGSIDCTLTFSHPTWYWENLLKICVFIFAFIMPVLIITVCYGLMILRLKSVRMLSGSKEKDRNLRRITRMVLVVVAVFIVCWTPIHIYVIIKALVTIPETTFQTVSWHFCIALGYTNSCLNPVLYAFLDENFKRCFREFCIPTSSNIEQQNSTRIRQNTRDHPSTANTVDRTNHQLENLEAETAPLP
Sequence of Opioid receptors; mu & delta (Homo sapiens) (P41143 whole entry, looked up): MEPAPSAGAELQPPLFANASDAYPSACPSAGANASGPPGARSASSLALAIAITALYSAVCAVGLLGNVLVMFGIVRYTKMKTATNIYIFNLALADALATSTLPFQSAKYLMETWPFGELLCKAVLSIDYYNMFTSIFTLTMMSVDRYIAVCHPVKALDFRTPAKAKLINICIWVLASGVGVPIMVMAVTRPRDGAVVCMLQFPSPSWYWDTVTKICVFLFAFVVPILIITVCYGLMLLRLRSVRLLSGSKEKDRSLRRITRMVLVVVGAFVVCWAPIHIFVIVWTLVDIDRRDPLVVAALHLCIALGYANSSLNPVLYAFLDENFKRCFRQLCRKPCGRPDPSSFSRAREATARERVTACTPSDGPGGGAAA

[3] = target: Delta-type opioid receptor (Mus musculus, UniProt P32300); experiment: Inhibitory concentration required against biological activity of Opioid receptor delta 1 from mouse vas deferens (MVD)
Sequence of Delta-type opioid receptor (P32300 whole entry): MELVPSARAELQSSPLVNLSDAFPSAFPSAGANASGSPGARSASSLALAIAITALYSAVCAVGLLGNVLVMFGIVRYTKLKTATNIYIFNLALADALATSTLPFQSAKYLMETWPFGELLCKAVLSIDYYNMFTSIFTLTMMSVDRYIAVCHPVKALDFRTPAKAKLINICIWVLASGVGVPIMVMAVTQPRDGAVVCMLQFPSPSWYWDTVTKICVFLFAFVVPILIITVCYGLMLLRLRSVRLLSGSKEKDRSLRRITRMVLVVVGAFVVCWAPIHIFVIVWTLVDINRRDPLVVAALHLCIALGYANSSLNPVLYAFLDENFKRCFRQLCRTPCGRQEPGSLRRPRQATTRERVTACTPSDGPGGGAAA

[4] = tested on: Opioid receptors; mu & delta; experiment: Ratio of activity of mu opioid receptor from guinea pig ileum (GPI) to that of delta opioid receptor from mouse vas deferens (MVD); format: tissue-based
Mu-type opioid receptor [5] = target: T1, Mu-type opioid receptor; experiment: Compound was tested for binding affinity towards mu opioid receptor in guinea pig brain homogenates using [3H]CTOP as radioligand; format: tissue-based

T1 sequence (P97266 whole entry): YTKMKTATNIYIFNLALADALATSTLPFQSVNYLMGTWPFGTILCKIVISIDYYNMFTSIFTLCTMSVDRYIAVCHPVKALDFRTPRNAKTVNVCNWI

| Compound | IC50 (Mu-type opioid receptor [1]) [nM] | Ratio [2] | IC50 [3] [nM] | Ratio [4] | Ki (Mu-type opioid receptor [5]) [nM] |
| --- | --- | --- | --- | --- | --- |
| CC(NC(=O)[C@@H](N)Cc1ccc(O)cc1)C(=O)NCC(=O)N[C@H](C(=O)NNC(=O)[C@@H](NC(=O)CNC(=O)C(C)NC(=O)[C@@H](N)Cc1ccc(O)cc1)[C@@H](C)c1ccccc1)[C@@H](C)c1ccccc1 (single isomer, unassigned) | 41 | 0.27 | 120 | 0.34 | 3 |
| C[C@@H](NC(=O)[C@@H](N)Cc1ccc(O)cc1)C(=O)NCC(=O)N[C@@H](Cc1cccc2ccccc12)C(=O)NNC(=O)[C@H](Cc1cccc2ccccc12)NC(=O)CNC(=O)[C@@H](C)NC(=O)[C@@H](N)Cc1ccc(O)cc1 | 1.7 | 0.12 | 17 | 0.1 | 0.79 |
| C[C@H](c1ccccc1)[C@H](NC(=O)CNC(=O)[C@@H](C)NC(=O)[C@@H](N)Cc1ccc(O)cc1)C(=O)NNC(=O)[C@@H](NC(=O)CNC(=O)[C@@H](C)NC(=O)[C@@H](N)Cc1ccc(O)cc1)[C@H](C)c1ccccc1 (stereo in doubt) | 21 | 0.012 | 180 | 0.12 | 1.3 |
| C[C@@H](NC(=O)[C@@H](N)Cc1ccc(O)cc1)C(=O)NCC(=O)N[C@@H](Cc1ccc2ccccc2c1)C(=O)NNC(=O)[C@H](Cc1ccc2ccccc2c1)NC(=O)CNC(=O)[C@@H](C)NC(=O)[C@@H](N)Cc1ccc(O)cc1 | 2.2 | 0.23 | 9.3 | 0.24 | 1.7 |
| C[C@@H](NC(=O)[C@@H](N)Cc1ccc(O)cc1)C(=O)NCC(=O)N[C@@H](Cc1c(F)c(F)c(F)c(F)c1F)C(=O)NNC(=O)[C@H](Cc1c(F)c(F)c(F)c(F)c1F)NC(=O)CNC(=O)[C@@H](C)NC(=O)[C@@H](N)Cc1ccc(O)cc1 | 8.9 | 0.12 | 25 | 0.36 | 0.91 |
